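Cultured in 96-well plates, cells were exposed to test compound for 48 hours across five concentrations. GI50: concentration for 50% inhibition of growth. At the TGI there is no net growth.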
What was measured:
Assay in all cases: NCI-60 cell line screen, 48 h
[1] = tested on: 786-0 renal
[2] = tested on: A498 renal
[3] = tested on: A549 NSCLC
[4] = tested on: ACHN renal
[5] = tested on: BT-549 breast
[6] = tested on: CAKI-1 renal
[7] = tested on: CCRF-CEM leukemia
[8] = tested on: COLO 205 colon
[9] = tested on: DU-145 prostate
[10] = tested on: EKVX NSCLC
[11] = tested on: HCC-2998 colon
[12] = tested on: HCT-116 colon
[13] = tested on: HCT-15 colon
[14] = tested on: HL-60(TB) leukemia
[15] = tested on: HOP-62 NSCLC
[16] = tested on: HOP-92 NSCLC
[17] = tested on: HS 578T breast
[18] = tested on: HT29 colon
[19] = tested on: IGROV1 ovarian
[20] = tested on: K-562 leukemia
[21] = tested on: KM12 colon
[22] = tested on: LOX IMVI melanoma
[23] = tested on: M14 melanoma
[24] = tested on: MCF7 breast
[25] = tested on: MDA-MB-231 breast
[26] = tested on: MDA-MB-435
[27] = tested on: MOLT-4 leukemia
[28] = tested on: NCI-H226 lung
[29] = tested on: NCI-H23 lung
[30] = tested on: NCI-H460 lung
[31] = tested on: NCI-H522 lung
[32] = tested on: NCI/ADR-RES ovarian
[33] = tested on: OVCAR-3 ovarian
[34] = tested on: OVCAR-4 ovarian
[35] = tested on: OVCAR-5 ovarian
[36] = tested on: OVCAR-8 ovarian
[37] = tested on: PC-3 prostate
[38] = tested on: RPMI-8226 leukemia
[39] = tested on: RXF 393 renal
[40] = tested on: SF-268 CNS
[41] = tested on: SF-295 CNS
[42] = tested on: SF-539 CNS
[43] = tested on: SK-MEL-2 melanoma
[44] = tested on: SK-MEL-28 melanoma
[45] = tested on: SK-MEL-5 melanoma
[46] = tested on: SK-OV-3 ovarian
[47] = tested on: SN12C renal
[48] = tested on: SNB-19 CNS
[49] = tested on: SNB-75 CNS
[50] = tested on: SR leukemia
[51] = tested on: SW-620 colon
[52] = tested on: T-47D breast
[53] = tested on: TK-10 renal
[54] = tested on: U251 CNS
[55] = tested on: UACC-257 melanoma
[56] = tested on: UACC-62 melanoma
[57] = tested on: UO-31 renal
[58] = tested on: MALME-3M melanoma

With `Cc1ccc(-c2c3c(nn2-c2ccc(S(=O)(=O)NC(=O)Nc4ccccc4)cc2)-c2ccccc2C3)cc1` the GI50 [1] was 22.7 µM, the TGI [1] was over 100 µM and the GI50 [2] was 19.6 µM. It also gave a TGI [2] of 36.6 µM, a GI50 [3] of 28 µM and a TGI [3] of over 100 µM. It also gave a GI50 [4] of 14.6 µM, a TGI [4] of 30.5 µM and a GI50 [5] of 18.8 µM. For the same compound, the TGI [5] was 44.2 µM, the GI50 [6] was 15.4 µM and the TGI [6] was 45.5 µM. It also gave a GI50 [7] of 2.13 µM, a TGI [7] of over 100 µM and a GI50 [8] of 19.5 µM. It also gave a TGI [8] of 45.9 µM, a GI50 [9] of 15.3 µM and a TGI [9] of 33.9 µM. For the same compound, the GI50 [10] was 18.1 µM, the TGI [10] was 43.8 µM and the GI50 [11] was 13.6 µM. For the same compound, the TGI [11] was 37.9 µM, the GI50 [12] was 19.2 µM and the TGI [12] was over 100 µM. For the same compound, the GI50 [13] was 15.5 µM, the TGI [13] was 52.2 µM and the GI50 [14] was 24.2 µM. The TGI [14] was 83.7 µM, the GI50 [15] was 32 µM and the TGI [15] was over 100 µM. The GI50 [16] was 18.1 µM, the TGI [16] was 44.9 µM and the GI50 [17] was 24.1 µM. The TGI [17] was 73.9 µM, the GI50 [18] was 35.7 µM and the TGI [18] was over 100 µM. The GI50 [19] was 3.67 µM, the TGI [19] was 16.5 µM and the GI50 [20] was 11.1 µM. For the same compound, the TGI [20] was over 100 µM, the GI50 [21] was 18 µM and the TGI [21] was 51.2 µM. It also gave a GI50 [22] of 12.3 µM, a TGI [22] of over 100 µM and a GI50 [23] of 24.6 µM. The TGI [23] was 87.2 µM, the GI50 [24] was 20.5 µM and the TGI [24] was over 100 µM. It also gave a GI50 [25] of 17.5 µM, a TGI [25] of 55 µM and a GI50 [26] of 28.1 µM. The TGI [26] was over 100 µM, the GI50 [27] was 5.14 µM and the TGI [27] was over 100 µM. For the same compound, the GI50 [28] was 15.4 µM, the TGI [28] was 56 µM and the GI50 [29] was 15 µM. For the same compound, the TGI [29] was 37.6 µM, the GI50 [30] was 19.3 µM and the TGI [30] was 70.2 µM. It also gave a GI50 [31] of 11.7 µM, a TGI [31] of 30.5 µM and a GI50 [32] of 23.1 µM. It also gave a TGI [32] of 75.5 µM, a GI50 [33] of 32.9 µM and a TGI [33] of over 100 µM. The GI50 [34] was 19.7 µM, the TGI [34] was 51.5 µM and the GI50 [35] was 30.1 µM. The TGI [35] was 97.2 µM, the GI50 [36] was 19.1 µM and the TGI [36] was 52.9 µM. The GI50 [37] was 16 µM, the TGI [37] was 38 µM and the GI50 [38] was 7.22 µM. The TGI [38] was 69.3 µM, the GI50 [39] was 17.9 µM and the TGI [39] was 43.1 µM. The GI50 [40] was 19.1 µM, the TGI [40] was 55.7 µM and the GI50 [41] was 34.5 µM. For the same compound, the TGI [41] was over 100 µM, the GI50 [42] was 18.2 µM and the TGI [42] was 38.9 µM. It also gave a GI50 [43] of 16.1 µM, a TGI [43] of 32.5 µM and a GI50 [44] of 21.2 µM. For the same compound, the TGI [44] was 46.9 µM, the GI50 [45] was 15.1 µM and the TGI [45] was 36.5 µM. It also gave a GI50 [46] of 18.2 µM, a TGI [46] of 48.1 µM and a GI50 [47] of 16.9 µM. The TGI [47] was 35.8 µM, the GI50 [48] was 30 µM and the TGI [48] was over 100 µM. For the same compound, the GI50 [49] was 22.9 µM, the TGI [49] was 66.3 µM and the GI50 [50] was 2.26 µM. It also gave a TGI [50] of 6.92 µM, a GI50 [51] of 12 µM and a TGI [51] of over 100 µM. The GI50 [52] was 30.7 µM, the TGI [52] was over 100 µM and the GI50 [53] was 10.3 µM. For the same compound, the TGI [53] was 24.8 µM, the GI50 [54] was 17.5 µM and the TGI [54] was 37.6 µM. The GI50 [55] was 18.7 µM, the TGI [55] was 39.9 µM and the GI50 [56] was 12.8 µM. For the same compound, the TGI [56] was 27.4 µM, the GI50 [57] was 8.78 µM and the TGI [57] was 24.3 µM.
With `O=C(CSCC(=O)N/N=C\c1cc(Cl)cc(Cl)c1O)N/N=C\c1cc(Cl)cc(Cl)c1O` the TGI [1] was 20 µM, the TGI [3] was 32.8 µM and the TGI [4] was 11.7 µM. For the same compound, the TGI [5] was 25.8 µM, the TGI [6] was 15 µM and the TGI [7] was 0.748 µM. For the same compound, the TGI [8] was 20.4 µM, the TGI [9] was 21.1 µM and the TGI [10] was 28.3 µM. It also gave a TGI [12] of 12.8 µM, a TGI [13] of 12.9 µM and a TGI [14] of 13.9 µM. The TGI [15] was 18.3 µM, the TGI [16] was 31.4 µM and the TGI [17] was 20.1 µM. It also gave a TGI [18] of 22.3 µM, a TGI [19] of 15.3 µM and a TGI [20] of 12.7 µM. It also gave a TGI [21] of 19.7 µM, a TGI [22] of 10.8 µM and a TGI [23] of 17.5 µM. It also gave a TGI [58] of 8.02 µM, a TGI [24] of 34.5 µM and a TGI [25] of 13.5 µM. For the same compound, the TGI [26] was 21.1 µM, the TGI [27] was 8.81 µM and the TGI [28] was 15 µM. For the same compound, the TGI [29] was 22.9 µM, the TGI [30] was 42.8 µM and the TGI [31] was 6.59 µM. It also gave a TGI [32] of 12.5 µM, a TGI [33] of 6.83 µM and a TGI [34] of 19.1 µM. For the same compound, the TGI [35] was 22.9 µM, the TGI [36] was 14.3 µM and the TGI [37] was 18.5 µM. For the same compound, the TGI [39] was over 100 µM, the TGI [40] was 15.7 µM and the TGI [41] was 21 µM. It also gave a TGI [42] of 11.1 µM, a TGI [43] of 12.9 µM and a TGI [44] of 18.9 µM. It also gave a TGI [45] of 16.3 µM, a TGI [46] of 24 µM and a TGI [47] of 16.2 µM. It also gave a TGI [48] of over 100 µM, a TGI [49] of 36 µM and a TGI [50] of 11 µM. It also gave a TGI [51] of 16.2 µM, a TGI [52] of 27.9 µM and a TGI [53] of 21 µM. The TGI [54] was 6.61 µM, the TGI [55] was 18.2 µM and the TGI [56] was 13.7 µM. It also gave a TGI [57] of 17.5 µM.

Source: PubChem BioAssay (NCI)
